From patent US8785692B2, “Substituted phenylamidines and the use thereof as fungicides” (priority 2007, dated 2014)
Where two headings read alike, the source gives them in different places.

Legend:
Sphaerotheca fuliginea = test: Sphaerotheca test (cucumber) / protective; assay type: in vivo; conditions: Podosphaera fuliginea, 168 h; cucumber, protective, 500 ppm active compound, evaluation 7 days after inoculation; read-out: efficacy
Method: Sphaerotheca Test (Cucumber)/Protective
Solvent: 49 parts by weight of N,N-dimethylformamide
Emulsifier: 1 part by weight of alkylaryl polyglycol ether
To produce a suitable preparation of active compound, 1 part by weight of active compound is mixed with the stated amounts of solvent and emulsifier, and the concentrate is diluted with water to the desired concentration.
To test for protective activity, young cucumber plants are sprayed with the active compound preparation at the stated application rate. 1 day after the treatment, the plants are inoculated with a spore suspension of Sphaerotheca fuliginea. The plants are then placed in a greenhouse at 70% relative atmospheric humidity and a temperature of 23° C.
Evaluation is carried out 7 days after the inoculation. 0% means an efficacy which corresponds to that of the control, whereas an efficacy of 100% means that no infection is observed.

[1] = logP (neutral / acidic, pH 2.3)

Compound	logP [1]	logP ([1]; pH 2.3)	pest or weed control at 500 ppm (Sphaerotheca fuliginea) [%]	logP acidic ([1]; acidic)	logP neutral ([1]; neutral)
CCN(C)C=Nc1cc(C)c(/C(C)=N/OC(C)c2ccc(Cl)cc2)cc1C (stereo not drawn) [Compound 38, N′-(4-{(1E)-N-[1-(4-chlorophenyl)ethoxy]ethanimidoyl}-2,5-dimethylphenyl)-N-ethyl-N-methylimidoformamide]	5.67	2.46			
CCN(C)C=Nc1cc(C)c(/C(C)=N/OC(C)(C)C)cc1C [Compound 9, N-ethyl-N′-{4-[(1E)-N-tert-butoxyethanimidoyl]-2,5-dimethylphenyl}-N-methylimidoformamide]	5.17	2.19			
CCN(C)C=Nc1cc(C)c(/C(C)=N/Oc2ccccc2)cc1C [Compound 11, N′-{2,5-dimethyl-4-[(1E)-N-phenoxyethanimidoyl]-phenyl}-N-ethyl-N-methylimidoformamide]		2.21	≥ 70		
CCN(C)C=Nc1cc(C)c(/C(C)=N/OCC(C)C)cc1C [Compound 13, N-ethyl-N′-{4-[(1E)-N-isobutoxyethanimidoyl]-2,5-dimethylphenyl}-N-methylimidoformamide]	4.98	2.22			
CCN(C)C=Nc1cc(C)c(/C(C)=N/OCC[Si](C)(C)C)cc1C [Compound 44, N′-(2,5-dimethyl-4-{(1E)-N-[2-(trimethylsilyl)ethoxy]ethanimidoyl}phenyl)-N-ethyl-N-methylimidoformamide]	6.21	2.76			
N-(2,5-dimethyl-4-{(E)-[1-phenylethoxy]ethanimidoyl}phenyl)-N-ethyl-N-methylimidoformamide [Compound 27]				2.39	5.09
CCN(C)C=Nc1cc(C)c(/C(C)=N/OC(C)C)cc1C [Compound 10, N-ethyl-N′-{4-[(1E)-N-isopropoxyethanimidoyl]-2,5-dimethylphenyl}-N-methylimidoformamide]	4.42	1.92			
Cc1cc(C=NOCc2ccccc2)c(C)cc1N [4-(Benzyloxyiminomethyl)-2,5-dimethylaniline]		4.22			
CCN(C)C=Nc1cc(C)c(/C=N/OCCC(C)(C)C)cc1C [Compound 48, N′-(4-{(E)-[(3,3-dimethylbutoxy)imino]methyl}-2,5-dimethylphenyl)-N-ethyl-N-methylimidoformamide]	5.89	2.3			
Cc1cc(C=NOC(C)C)c(C)cc1N [4-(Isopropoxyiminomethyl)-2,5-dimethylaniline]		2.77			
CCN(C)C=Nc1cc(C)c(/C=N/OCc2ccc3c(c2)OCOC3)cc1C [Compound 4, N′-(4-{(E)-[(4H-1,3-benzodioxin-7-ylmethoxy)imino]methyl}-2,5-dimethylphenyl)-N-ethyl-N-methylimidoformamide]	4.71	2.02			
Cc1cc(C=O)c(C)cc1N [4-Amino-2,5-dimethylbenzaldehyde]		1.34			
CCO/N=C(\C)c1cc(C)c(N=CN(C)CC)cc1C [Compound 23, N-ethyl-N′-{4-[(1E)—N-ethoxyethanimidoyl]-2,5-dimethylphenyl}-N-methylimidoformamide]	3.86	1.6			

Continued, in another order:

logP [1]	logP ([1]; pH 2.3)	Compound	pest or weed control at 500 ppm (Sphaerotheca fuliginea) [%]	logP acidic ([1]; acidic)	logP neutral ([1]; neutral)
4.65	2.07	CCN(C)C=Nc1cc(C)c(/C(C)=N/OCc2ccccc2)cc1C [Compound 31, N′-(4-{(1E)-N—[benzyloxy]-ethanimidoyl}-2,5-dimethylphenyl)-N-ethyl-N-methylimidoformamide]	≥ 70		
3.63	1.68	CCN(C)C=Nc1cc(C)c(/C(C)=N/OCc2c(C)noc2C)cc1C [Compound 36, N′-(4-{(1E)-N-[(3,5-dimethylisoxazol-4-yl)methoxy]ethanimidoyl}-2,5-dimethylphenyl)-N-ethyl-N-methylimidoformamide]	≥ 70		
5.33	2.38	CCN(C)C=Nc1cc(C)c(/C(C)=N/OC(C2CC2)C2CC2)cc1C [Compound 20, N′-{4-[(1E)-N-(dicyclopropylmethoxy)ethanimidoyl]-2,5-dimethylphenyl}-N-ethyl-N-methylimidoformamide]	≥ 70		
5.28	2.59	CCN(C)C=Nc1cc(C)c(/C(C)=N/OCCOc2cccc(C(F)(F)F)c2)cc1C [Compound 34, N′-{2,5-dimethyl-4-[(1E)-N-{2-[3-(trifluoromethyl)phenoxy]ethoxy}ethan-imidoyl]phenyl}-N-ethyl-N-methylimidoformamide]	≥ 70		
5.55	2.56	CCN(C)C=Nc1cc(C)c(/C(C)=N/OCCc2ccc(Cl)cc2)cc1C [Compound 25, N′-(4-{(1E)-N-[2-(4-chloro-phenyl)ethoxy]ethanimidoyl}-2,5-dimethylphenyl)-N-ethyl-N-methylimidoformamide]	≥ 70		
5.77	2.69	CCN(C)C=Nc1cc(C)c(/C(C)=N/OCc2cccc(Oc3ccccc3)c2)cc1C [Compound 22, N′-(2,5-dimethyl-4-{(1E)-N-[(3-phenoxybenzyl)oxy]ethanimidoyl}phenyl)-N-ethyl-N-methylimidoformamide]	≥ 70		
5.51	3.75	CCN(C)C=Nc1cc(C)c(/C(C)=N/OCc2c(Cl)cccc2Cl)cc1C [Compound 29, N′-(4-{(1E)-N-[(2,6-dichlorobenzyl)oxy]ethanimidoyl}-2,5-dimethylphenyl)-N-ethyl-N-methylimidoformamide]	≥ 70		
4.75	1.79	CCN(C)C=Nc1cc(C)c(/C(C)=N/CCCC(C)(C)C)cc1C [Compound 46, N′-{4-[(1E)-N-(4,4-dimethylpentyl)ethanimidoyl]-2,5-dimethylphenyl}-N-ethyl-N-methylimido-formamide]			
4.02	1.72	C=CCO/N=C(\C)c1cc(C)c(N=CN(C)CC)cc1C [Compound 35, N′-{4-[(1E)-N-(allyloxy)ethanimidoyl]-2,5-dimethylphenyl}-N-ethyl-N-methylimidoformamide]			
3.33	1.38	CCN(C)C=Nc1cc(C)c(/C(C)=N/OC)cc1C [Compound 24, N-ethyl-N′-{4-[(1E)-N-methoxyethanimidoyl]-2,5-dimethylphenyl}-N-methylimidoformamide]			
5.2	2.32	CCN(C)C=Nc1cc(C)c(/C(C)=N/OC/C=C/c2ccccc2)cc1C [Compound 19, N′-{2,5-dimethyl-4-[(1E)-N-{[(2E)-3-phenylprop-2-en-1-yl]oxy}ethanimidoyl]phenyl}-N-ethyl-N-methylimidoformamide]			
3.05	1.43	CCN(C)C=Nc1cc(C)c(/C(C)=N/OCOCCOC)cc1C [Compound 18, N′-{2,5-dimethyl-4-[(1E)-1-methyl-3,5,8-trioxa-2-azanon-1-en-1-yl]phenyl}-N-ethyl-N-methylimidoformamide]			
3.95	1.67	CCN(C)C=Nc1cc(C)c(/C=N/OCC2CC2)cc1C [Compound 47, N′-(4-{(E)-[(cyclopropylmethoxy)imino]methyl}-2,5-dimethylphenyl)-N-ethyl-N-methylimidoformamide]			
	1.91	CCN(C)C=Nc1cc(C)c(/C(C)=N/Nc2ccccc2F)cc1C [Compound 45, N-ethyl-N′-(4-{(1E)-1-[2-(2-fluorophenyl)hydrazinylidene]ethyl}-2,5-dimethylphenyl)-N-methylimidoformamide]			
